We go through 10 molecules from patent US6548494B1, “Tricyclic inhibitors of poly(ADP-ribose) polymerases” (Agouron Pharmaceuticals, Inc., priority 1999, dated 2003).

For series [1], the system named is A549 cells. Nature of the series: Cytotoxicity potentiation assay. Format: cell-based. The following applies: test compound 0.4 μM, ratio of IC50 of topotecan alone to IC50 of topotecan with test compound. As to the method:
A549 cells (ATCC, Rockville, Md.) were seeded into 96-well cell culture plates (Falcon brand, Fisher Scientific, Pittsburgh, Pa.) 16 to 24 hours before experimental manipulation. Cells were then treated with a test compound (or a combination of test compounds where indicated) each at a concentration of 0.4 μM for either 3 days or 5 days. At the end of treatments, relative cell number was determined either by MTT assay or SRB assay. For the MTT assay, 0.2 μg/μl of MTT (3-(4,5-dimethylthiazol-2-yl)-2,5-diphenyltetrazolium bromide) (Sigma Chemical Co., St. Louis, Mo.) was added to each well of a plate, and the plate was incubated in a cell-culture incubator for 4 hours. Metabolized MTT in each well was solubilized in 150 μl of DMSO (Sigma Chemical Co.) with shaking and quantified with a Wallac 1420 Victor plate reader (EG&G Wallac, Gaithersburg, Md.) at 540 nm. For the SRB assay, cells were fixed with 10% trichloroacetic acid (Sigma Chemical Co) for an hour at 4° C. After extensively washing, fixed cells were stained for 30 minutes with 0.4% sulforhodamine B (SRB, Sigma Chemical Co.) in 1% acetic acid (Sigma Chemical Co). Unbound SRB was washed away with 1% acetic acid. Then the cultures were air-dried, and dye was solubilized with 10 mM unbuffered Tris base (Sigma Chemical Co) with shaking. The bound dye was measured photometrically with the Wallac Victor plate reader at 515 nm. The ratio of the OD (optical density) value of a compound-treated culture to the OD value of a mock-treated culture, expressed in percentage, was used to quantify the cytotoxicity of a compound. […] To quantify the potentiation of the cytotoxicity of topotecan or temozolomide by test compounds, a dimensionless parameter PF50 is used and is defined as the ratio of the IC50 of topotecan or temozolomide alone to the IC50 of topotecan or temozolomide in combination with a test compound. For the compounds of the invention, PF50 values were determined by testing with topotecan.

Series [2] addresses purified PARP protein (Homo sapiens, UniProt P09874). The series is described as follows: PARP enzyme inhibition assay. In kind it is biochemical. The settings on record: 20 nM purified PARP (5 nM for tight-binding inhibitors), 500 μM NAD+, 25° C.; several values in one cell = repeat determinations; read-out: Inhibition Constant Ki.

pKi: −log10 of the molar value. “And” between values parts separate entries of the source, which are not always exact repeats. Identical values can stand only once.

Sequence of purified PARP protein (P09874 whole entry): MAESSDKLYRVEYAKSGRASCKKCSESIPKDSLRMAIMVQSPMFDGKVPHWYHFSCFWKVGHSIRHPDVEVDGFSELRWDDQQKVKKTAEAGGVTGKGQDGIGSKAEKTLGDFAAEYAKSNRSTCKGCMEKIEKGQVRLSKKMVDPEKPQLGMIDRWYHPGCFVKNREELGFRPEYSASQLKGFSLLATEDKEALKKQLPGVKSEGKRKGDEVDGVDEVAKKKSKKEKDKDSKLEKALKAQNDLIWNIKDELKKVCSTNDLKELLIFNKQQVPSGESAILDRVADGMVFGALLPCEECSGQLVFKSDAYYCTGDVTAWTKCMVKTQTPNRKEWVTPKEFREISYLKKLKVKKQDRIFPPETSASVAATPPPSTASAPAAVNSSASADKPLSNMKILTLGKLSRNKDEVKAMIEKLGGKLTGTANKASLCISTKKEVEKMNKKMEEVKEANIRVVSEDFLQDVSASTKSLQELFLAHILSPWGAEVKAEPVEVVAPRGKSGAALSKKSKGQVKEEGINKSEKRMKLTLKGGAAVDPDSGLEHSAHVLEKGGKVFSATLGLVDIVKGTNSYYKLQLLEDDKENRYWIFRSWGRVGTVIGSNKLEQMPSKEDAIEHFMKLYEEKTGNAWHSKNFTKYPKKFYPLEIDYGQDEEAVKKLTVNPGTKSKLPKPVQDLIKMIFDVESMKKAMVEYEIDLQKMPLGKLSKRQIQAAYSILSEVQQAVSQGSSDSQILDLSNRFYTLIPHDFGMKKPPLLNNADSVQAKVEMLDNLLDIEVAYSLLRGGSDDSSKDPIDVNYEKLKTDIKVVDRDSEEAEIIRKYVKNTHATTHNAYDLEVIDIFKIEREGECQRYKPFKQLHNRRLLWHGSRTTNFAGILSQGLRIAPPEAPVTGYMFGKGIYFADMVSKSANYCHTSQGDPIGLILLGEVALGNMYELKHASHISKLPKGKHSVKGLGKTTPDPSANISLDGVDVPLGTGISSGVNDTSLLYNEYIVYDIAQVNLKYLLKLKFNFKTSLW

Turning to `CN(C)CCc1ccc(-c2nc3cccc4c3n2CCNC4=O)cc1` [Example 129, 1-[4-(2-Dimethylamino-ethyl)-phenyl]-8,9-dihydro-7H-2,7,9a-triaza-benzo[cd]azulen-6-one], the melting point – broadly, the temperature of the solid-liquid transition – is > 98 °C (dec.). The “Cytotoxicity Potentiation PF50” value in series [1] amounted to 1.9. For the same molecule, the pKi – broadly, the negative decadic logarithm of the Ki, by convention in mol/L – in series [2] was 8.30.
With `O=C1NCCn2c(-c3ccc(C4CCCCN4)cc3)nc3cccc1c32` (stereo not drawn) [Example 130, 1-(4-Piperidin-2-yl-phenyl)-8,9-dihydro-7H-2,7,9a-triaza-benzo[cd]azulen-6-one], the melting point lay within 263 to 265 °C. The “Cytotoxicity Potentiation PF50” value in series [1] worked out at 3.4. For the same molecule, in series [2], the pKi was 8.36 and 8.25.
`CN1CCCCC1c1ccc(-c2nc3cccc4c3n2CCNC4=O)cc1` (stereo not drawn) [Example 132, 1-[4-(1-Methyl-piperidin-2-yl)-phenyl]-8,9-dihydro-7H-2,7,9a-triaza-benzo[cd]azulen-6-one]: the melting point was > 180 °C (dec.). Also, the “Cytotoxicity Potentiation PF50” value in series [1] is 2.4. The pKi in series [2] was 8.17.
`O=C1NCCn2c(-c3ccc(-c4cccnc4)cc3)nc3cccc1c32` [Example 134, 1-(4-Pyridin-3-yl-phenyl)-8,9-dihydro-7H-2,7,9a-triaza-benzo[cd]azulen-6-one] showed a melting point of 284 to 286 °C. The “Cytotoxicity Potentiation PF50” value in series [1] was found to be 2.5. In series [2], the negative-log Ki (pKi) is 8.55.
For `O=C1NCCn2c(-c3ccc(C4CCNCC4)cc3)nc3cccc1c32` [Example 137, 1-(4-Piperidin-4-yl-phenyl)-8,9-dihydro-7H-2,7,9a-triaza-benzo[cd]azulen-6-one], the melting point is > 192 °C (dec.). The “Cytotoxicity Potentiation PF50” value in series [1] amounted to 2.2. Also, the pKi in series [2] is 8.27.
In the case of `CN1CCC(c2ccc(-c3nc4cccc5c4n3CCNC5=O)cc2)CC1` [Example 141, 1-[4-(1-Methyl-piperidin-4-yl)-phenyl]-8,9-dihydro-7H-2,7,9a-triaza-benzo[cd]azulen-6-one], the melting point was > 240 °C (dec.). Moreover, the “Cytotoxicity Potentiation PF50” value in series [1] came out at 2.3. The pKi in series [2] was 8.26.
For `O=C1NCCn2c(-c3ccc(C4CCCNC4)cc3)nc3cccc1c32` (stereo not drawn) [Example 142, 1-(4-Piperidin-3-yl-phenyl)-8,9-dihydro-7H-2,7,9a-triaza-benzo[cd]azulen-6-one], in that order: > 230 °C (dec.), 2.2 and 8.42.
Regarding `O=C1NCCn2c(-c3ccc(C4CCCN4)cc3)nc3cccc1c32` (stereo not drawn) [Example 148, 1-(4-Pyrrolidin-2-yl-phenyl)-8,9-dihydro-7H-2,7,9a-triaza-benzo[cd]azulen-6-one], the melting point was 220 to 223 °C (dec.). Further, in series [1], the “Cytotoxicity Potentiation PF50” value was determined as 2.5. In addition, in series [2], the negative logarithm of the Ki (pKi) was 8.55.
`CN1CCCC1c1ccc(-c2nc3cccc4c3n2CCNC4=O)cc1` (stereo not drawn) [Example 149]: the melting point is 235 to 238 °C (dec.). The “Cytotoxicity Potentiation PF50” value in series [1] stood at 2.6. Further, in series [2], the pKi is 8.38.
In turn, `CN(C)Cc1ccc(-c2cc3cc(F)cc4c3n2CCNC4=O)cc1` [Example 170, 6-(4-Dimethylaminomethyl-phenyl)-9-fluoro-3,4-dihydro-2H-[1,4]diazepino[6,7,1-hi]indol-1-one] registered a melting point of 172 to 174 °C. For the same molecule, the “Cytotoxicity Potentiation PF50” value in series [1] came out at 1.9. For the same molecule, the pKi in series [2] was 8.51.
